Measured values from patent publication US9833497B2, “Human originated EGF domain proteins and use of the same” (CHENGDU SOURCEBIO LIMITED-LIABILITY COMPANY, priority 2013, dated 2017).

What was measured:
Format in all cases: cell-based
[1] = tested on: E. coli BL21; test: MIC against Gram-negative bacteria: E. coli BL21; settings: 5×10^5 CFU/mL; for MIC (μg/mL) E. coli BL21: 10 h cultivation at 37° C.
In short: (§1)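 Inocula prepared by growing LB cultures at 37° C to 0.5 McFarland, centrifuging at 4000×g, and resuspending in fresh medium. Final density 5×10^5 CFU/mL per well with two-fold dilutions of purified EGF domain protein; shaking incubation at 37° C.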

[2] = tested on: Klebsiella pneumonia; test: MIC against Gram-negative bacteria: Klebsiella pneumonia; settings: 5×10^5 CFU/mL; for MIC (μg/mL) K. pneumonia: 10 h cultivation at 37° C.
In short: as §1

[3] = tested on: Citrobacter diversus; test: MIC against Gram-negative bacteria: Citrobacter diversus; settings: 5×10^5 CFU/mL; for MIC (μg/mL) C. diversus: 10 h cultivation at 37° C.
In short: as §1

[4] = tested on: Pseudomonas aeruginosa; test: MIC against Gram-negative bacteria: Pseudomonas aeruginosa; settings: 5×10^5 CFU/mL; for MIC (μg/mL) P. aeruginosa: 10 h cultivation at 37° C.
In short: as §1

[5] = tested on: Proteus vulgaris; test: MIC against Gram-negative bacteria: Proteus vulgaris; settings: 5×10^5 CFU/mL; for MIC (μg/mL) P. vulgaris: 10 h cultivation at 37° C.
In short: as §1

[6] = tested on: Enterobacter cloacae; test: MIC against Gram-negative bacteria: Enterobacter cloacae; settings: 5×10^5 CFU/mL; for MIC (μg/mL) E. cloacae: 10 h cultivation at 37° C.
In short: as §1

[7] = tested on: Aeromonas hydrophila; test: MIC against Gram-negative bacteria: Aeromonas hydrophila; settings: 5×10^5 CFU/mL; for MIC (μg/mL) A. hydrophila: 10 h cultivation at 37° C.
In short: as §1

[8] = tested on: Moraxella catarrhalis; test: MIC against Gram-negative bacteria: Moraxella catarrhalis; settings: 5×10^5 CFU/mL; for MIC (μg/mL) M. catarrhalis: 10 h cultivation at 37° C.
In short: as §1

[9] = tested on: Proteus mirabilis; test: MIC against Gram-negative bacteria: Proteus mirabilis; settings: 5×10^5 CFU/mL; for MIC (μg/mL) P. mirabilis: 10 h cultivation at 37° C.
In short: as §1

[10] = tested on: E. coli DH5α; test: Antibacterial activity: MIC and growth curve against E. coli DH5α in 96-well plate; settings: minimal inhibitory concentration against E. coli DH5α; 96-well plate, 5×10^5 CFU/mL, 37° C., judged after 8 h
In short: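 Log-phase bacteria (OD600 ~0.5) resuspended in LB at 5×10^5 CFU/mL, exposed to recombinant protein at 50, 25, 12.5 μg/mL final in triplicate, 37 °C shaking at 175 rpm. OD600 read every 30 min; MIC is lowest concentration showing no growth.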

[11] = tested on: Serratia marcescens; test: MIC against Gram-negative bacteria: Serratia marcescens; settings: 5×10^5 CFU/mL; for MIC (μg/mL) S. marcescens: 10 h cultivation at 37° C.
In short: as §1

| Substance | MIC (μg/mL) E. coli BL21 ([1]; E. coli BL21) | MIC (μg/mL) K. pneumonia [2] | MIC (μg/mL) C. diversus [3] | MIC (μg/mL) P. aeruginosa [4] | MIC (μg/mL) P. vulgaris [5] | MIC (μg/mL) E. cloacae [6] | MIC (μg/mL) A. hydrophila [7] | MIC (μg/mL) M. catarrhalis [8] | MIC (μg/mL) P. mirabilis [9] | MIC [10] | MIC (μg/mL) S. marcescens [11] | MIC E. coli BL21 ([1]; 96-well plate, 37° C., 10 h) | MIC K. pneumonia ([2]; 96-well plate, 37° C., 10 h) | MIC C. diversus ([3]; 96-well plate, 37° C., 10 h) | MIC P. aeruginosa ([4]; 96-well plate, 37° C., 10 h) | MIC P. vulgaris ([5]; 96-well plate, 37° C., 10 h) | MIC E. cloacae ([6]; 96-well plate, 37° C., 10 h) | MIC A. hydrophila ([7]; 96-well plate, 37° C., 10 h) | MIC M. catarrhalis ([8]; 96-well plate, 37° C., 10 h) | MIC P. mirabilis ([9]; 96-well plate, 37° C., 10 h) | other results |
| --- | --- | --- | --- | --- | --- | --- | --- | --- | --- | --- | --- | --- | --- | --- | --- | --- | --- | --- | --- | --- | --- |
| PRT798 (FGQDCAQLCSCANNGTCSPIDGSCQCFPGWIGKDCS; listed as Homo sapiens) | 25 µg/mL | 50 µg/mL | 12.5 µg/mL | 12.5 µg/mL | 50 µg/mL | 12.5 µg/mL | 50 µg/mL | 50 µg/mL | 12.5 µg/mL | 12.5 µg/mL | 25 µg/mL | – | – | – | – | – | – | – | – | – | – |
| PRT622 (CNCNPMGSEPVGCRSDGTCVCKPGFGGPNC; listed as Homo sapiens) | – | – | – | – | – | – | – | – | – | 25 µg/mL | – | 50 µg/mL | 50 µg/mL | 50 µg/mL | 25 µg/mL | 12.5 µg/mL | 25 µg/mL | 12.5 µg/mL | 12.5 µg/mL | 50 µg/mL | MIC S. marcescens ([11]; 96-well plate, 37° C., 10 h): 12.5 µg/mL |
| PRT1305 (SANACSAFKCHHGQCHISDQGEPYCLCQPGFSGEHCQ; listed as Homo sapiens) | – | – | – | – | – | – | – | – | – | 12.5 µg/mL | – | – | – | – | – | – | – | – | – | – | MIC against E. coli BL21 ([1]; E. coli BL21, 96-well plate, 37° C., 10 h): 50 µg/mL; MIC against K. pneumonia ([2]; Klebsiella pneumonia, 96-well plate, 37° C., 10 h): 50 µg/mL; MIC against C. diversus ([3]; Citrobacter diversus, 96-well plate, 37° C., 10 h): 12.5 µg/mL; MIC against P. aeruginosa ([4]; Pseudomonas aeruginosa, 96-well plate, 37° C., 10 h): 12.5 µg/mL; MIC against P. vulgaris ([5]; Proteus vulgaris, 96-well plate, 37° C., 10 h): 25 µg/mL; MIC against E. cloacae ([6]; Enterobacter cloacae, 96-well plate, 37° C., 10 h): 12.5 µg/mL; MIC against A. hydrophila ([7]; Aeromonas hydrophila, 96-well plate, 37° C., 10 h): 50 µg/mL; MIC against M. catarrhalis ([8]; Moraxella catarrhalis, 96-well plate, 37° C., 10 h): 50 µg/mL; MIC against P. mirabilis ([9]; Proteus mirabilis, 96-well plate, 37° C., 10 h): 25 µg/mL; MIC against S. marcescens ([11]; Serratia marcescens, 96-well plate, 37° C., 10 h): 12.5 µg/mL |
| PRT612 (CPCPGGSSCAVVPKTKEVVCTNCPTGTTGKRCELCDDGYFGDPLGRNGPVRLCRL; listed as Homo sapiens) | – | – | – | – | – | – | – | – | – | 25 µg/mL | – | 12.5 µg/mL | 50 µg/mL | 25 µg/mL | 25 µg/mL | 12.5 µg/mL | 25 µg/mL | 12.5 µg/mL | 50 µg/mL | 25 µg/mL | MIC S. marcescens ([11]; 96-well plate, 37° C., 10 h): 25 µg/mL |
| PRT818 (DCRSACNCTAGAACDAVNGSCLCPAGRRGPRCA; listed as Homo sapiens) | 50 µg/mL | 12.5 µg/mL | 12.5 µg/mL | 25 µg/mL | 12.5 µg/mL | 12.5 µg/mL | 25 µg/mL | 25 µg/mL | 25 µg/mL | 25 µg/mL | 12.5 µg/mL | – | – | – | – | – | – | – | – | – | – |
| PRT785 (IHTCNCHNGAFCSAYDGECKCTPGWTGLYCT; listed as Homo sapiens) | 50 µg/mL | 25 µg/mL | 12.5 µg/mL | 25 µg/mL | 25 µg/mL | 12.5 µg/mL | 50 µg/mL | 25 µg/mL | 50 µg/mL | 25 µg/mL | 50 µg/mL | – | – | – | – | – | – | – | – | – | – |
